Data taken from PubChem BioAssay (NCI).
Values joined by “and” are separate entries in the source; they are usually repeats but may differ in a detail not shown here. Equal entries are not always repeated.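 Dose response: 5 concentrations. Exposure: 48 h. Format: 96-well plates. Endpoint: linear interpolation; highest concentration if not reached. At the GI50, growth is halved. TGI is the concentration that stops growth completely.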

Legend:
Assay in all cases: inhibition of tumour cell growth, NCI panel, 48 h
SR leukemia = test system: SR leukemia
HCT-15 colon = test system: HCT-15 colon
SN12C renal = test system: SN12C renal
RXF 393 renal = test system: RXF 393 renal
K-562 leukemia = test system: K-562 leukemia
LOX IMVI melanoma = test system: LOX IMVI melanoma
MALME-3M melanoma = test system: MALME-3M melanoma
A498 renal = test system: A498 renal
SNB-19 CNS = test system: SNB-19 CNS
IGROV1 ovarian = test system: IGROV1 ovarian

Row | SMILES | TGI (SR leukemia) | TGI (HCT-15 colon) | TGI (SN12C renal) | TGI (RXF 393 renal) | TGI (K-562 leukemia) | TGI (LOX IMVI melanoma) | TGI (MALME-3M melanoma) | TGI (A498 renal) | TGI (SNB-19 CNS) | TGI (IGROV1 ovarian) | GI50 (SR leukemia) | GI50 (HCT-15 colon) | GI50 (SN12C renal) | GI50 (RXF 393 renal) | GI50 (K-562 leukemia) | GI50 (LOX IMVI melanoma) | GI50 (MALME-3M melanoma) | GI50 (A498 renal) | GI50 (SNB-19 CNS) | GI50 (IGROV1 ovarian)
1 | Nc1nc(-c2ccccc2)c(CC(=O)O)s1 | > 100000 nM | > 100000 nM | > 100000 nM | > 100000 nM | > 100000 nM | > 100000 nM | > 100000 nM | > 100000 nM | > 100000 nM | > 100000 nM |  |  |  |  |  |  |  |  |  | 
2 | O=c1[nH]c2ccccc2cc1-c1nnc(Cc2ccccc2)o1 | 10900 nM | 13500 nM | 28200 nM | 10900 nM | 14400 nM | 4300 nM | 16200 nM | 27100 nM | 38100 nM | 27100 nM | 2030 nM | 3300 nM | 3460 nM | 2930 nM | 3290 nM | 1750 nM | 3940 nM | 13300 nM | 12900 nM | 5200 nM
3 | Cn1cc(-c2ccc3ncc(-c4ccc(CC(=O)Nc5cc(C(C)(C)C)nn5C)cc4)cc3c2)cn1 | > 20000 nM | > 20000 nM | > 20000 nM | > 20000 nM | > 20000 nM | > 20000 nM | > 20000 nM | 1660 nM | > 20000 nM | > 20000 nM | 967 nM | 793 nM | 854 nM | 1140 nM | 1130 nM | 1230 nM | 721 nM | 422 nM | 3350 nM | 568 nM
4 | CCN(CC)CCNc1n[n+]([O-])c2cc([N+](=O)[O-])ccc2[n+]1[O-] | 1750 nM and 958 nM and 754 nM | 5120 nM and 3160 nM and 2740 nM | 2970 nM and 2330 nM and 2580 nM | 5140 nM and 4280 nM and 3030 nM | 1230 nM and 1280 nM and 926 nM | 2060 nM and 1960 nM and 1830 nM | 1850 nM and 1380 nM and 1150 nM | 7990 nM and 4690 nM and 6230 nM | 6340 nM and 6430 nM and 5580 nM | 1830 nM and 999 nM and 897 nM | 398 nM and 188 nM and 123 nM | 870 nM and 287 nM and 273 nM | 675 nM and 249 nM and 255 nM |  | 296 nM and 199 nM and 124 nM |  | 571 nM and 306 nM and 144 nM |  |  | 
5 | O=C(Nc1nc(=S)[nH][nH]1)C(=O)C(c1cnc2ccc([N+](=O)[O-])cc2n1)[N+](=O)[O-] (stereo not given) | > 100000 nM | > 100000 nM | > 100000 nM | > 100000 nM | > 100000 nM | > 100000 nM | > 100000 nM | > 100000 nM | > 100000 nM | > 100000 nM |  |  |  |  |  |  |  |  |  | 
6 | COc1ccc(N(CC(=O)O)N=O)cc1 | > 100000 nM | > 100000 nM | > 100000 nM | > 100000 nM | > 100000 nM | > 100000 nM | > 100000 nM | > 100000 nM | > 100000 nM | > 100000 nM |  |  |  |  |  |  |  |  |  | 
7 | CCOC(=O)[C@@H](C)C[C@H](Cc1ccccc1)NC(=O)c1csc([C@@H](C[C@H](C(C)C)N(C)C(=O)CNC(=O)[C@H]2CCCCN2C)OC(C)=O)n1 | > 14300 nM | > 14300 nM | > 14300 nM | 4620 nM | > 14300 nM | > 14300 nM | > 14300 nM | 1380 nM | > 14300 nM | > 14300 nM | 145 nM | 1490 nM | 2180 nM | 502 nM | 358 nM | 2140 nM | 601 nM | 464 nM | 758 nM | 628 nM
8 | O=C1Nc2ccc(-c3cccnc3)cc2/C1=C/c1cc(Br)c(O)c(Br)c1 | > 25000 nM | > 25000 nM | > 25000 nM | > 19900 nM | > 25000 nM | > 25000 nM | 23900 nM | 11500 nM | > 25000 nM | > 25000 nM | 8240 nM | 6800 nM | 9120 nM | 6080 nM | 9070 nM | 4990 nM | 3960 nM | 3860 nM | 9110 nM | 7090 nM
9 | Cc1nc2ccncc2[nH]1 | > 100000 nM | > 100000 nM | > 100000 nM | > 100000 nM | > 100000 nM | > 100000 nM | > 100000 nM | > 100000 nM | > 100000 nM | > 100000 nM |  |  |  |  |  |  |  |  |  | 
10 | COc1ccc([C@@]23Oc4cc(OC)cc(OC)c4[C@]2(O)[C@H](O)[C@H](C(=O)N(C)C)[C@H]3c2ccccc2)cc1 |  |  | 329 nM and 66.4 nM and 186 nM | 82.3 nM and 26.2 nM and 78.5 nM | 25000 nM and > 100000 nM | 18.9 nM and 22.5 nM |  | 23.4 nM and 7.19 nM and 40.3 nM | 1370 nM and 159 nM |  | 16 nM | 15 nM | 19.2 nM | 17.8 nM | 3.34 nM |  | 14.2 nM | 15.5 nM | 11.3 nM | 24.8 nM
